Data published in ChEMBL document CHEMBL3774370, “Structure-activity relationships (SAR) and structure-kinetic relationships (SKR) of sulphone-based CRTh2 antagonists” (Eur J Med Chem, 2016).

Assays:
[1] = target: T1, Prostaglandin D2 receptor 2 (Homo sapiens, UniProt Q9Y5Y4); assay: Displacement of [35S]-GTPgammaS from CRTH2 receptor (unknown origin) expressed in CHOK1 cell membrane after 1 hr by liquid scintillation counter; type: cell membranes, CHO-K1
T1 sequence (Q9Y5Y4 whole entry): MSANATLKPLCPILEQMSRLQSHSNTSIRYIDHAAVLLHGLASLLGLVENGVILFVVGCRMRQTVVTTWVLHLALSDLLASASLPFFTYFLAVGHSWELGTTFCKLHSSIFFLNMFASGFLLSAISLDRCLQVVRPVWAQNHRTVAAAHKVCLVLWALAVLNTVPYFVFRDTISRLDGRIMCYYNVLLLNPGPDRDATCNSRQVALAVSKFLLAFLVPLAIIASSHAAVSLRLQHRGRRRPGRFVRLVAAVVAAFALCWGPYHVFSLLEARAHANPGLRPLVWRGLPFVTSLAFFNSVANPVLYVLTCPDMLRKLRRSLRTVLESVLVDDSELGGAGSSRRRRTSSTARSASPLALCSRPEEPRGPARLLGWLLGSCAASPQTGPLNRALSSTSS

[2] = system: Prostaglandin D2 receptor 2, CRTh2 (Homo sapiens); assay: Antagonist activity at CRTH2 receptor (unknown origin) expressed in CHOK1 cells assessed as dissociation half life measured up to 25 hrs by GTPgammaS assay; conditions: CHO-K1
[3] = target: T2, Prostaglandin D2 receptor 2 (Homo sapiens) (UniProt Q9Y5Y4); assay: Displacement of [35S]-GTPgammaS from CRTH2 receptor (unknown origin) expressed in CHOK1 cell membrane at 10 uM after 1 hr by liquid scintillation counter; type: cell membranes; conditions: CHO-K1
T2 sequence (whole entry): T1 sequence (Q9Y5Y4 whole entry)

SMILES	IC50 [1] [nM]	T1/2 [2] [h]	inhibition [3] [%]
COc1ccc(S(=O)(=O)c2ccc(F)cc2)c(Cc2c3c(n(CC(=O)O)c2C)CCCC3=O)c1	2	21	–
O=C(O)Cn1nc(Cc2ccccc2S(=O)(=O)c2ccccc2)c2ccccc2c1=O	–	–	< 25
Cc1c(Cc2ccccc2S(=O)(=O)c2ccccc2)c2cc(F)ccc2n1CC(=O)O	14	1.3	–
Cc1c(Cc2ccccc2S(=O)(=O)c2ccccc2)c(=O)n(-c2ccccc2)n1CC(=O)O	970	–	–
O=C(O)Cn1nc(-c2ccccc2)n(Cc2ccccc2S(=O)(=O)c2ccccc2)c1=O	–	–	< 25
O=C(O)Cn1nc(-c2ccccc2)cc(Cc2ccccc2S(=O)(=O)c2ccccc2)c1=O	–	–	< 25
O=C(O)Cc1cccn(Cc2ccccc2S(=O)(=O)c2ccccc2)c1=O	–	–	< 25
Cc1c(Cc2ccccc2S(=O)(=O)c2ccc(F)cc2)c2c(n1CC(=O)O)CCCC2	104	–	–
Cc1c(CC(=O)O)c(-c2ccccc2)nn1Cc1ccccc1S(=O)(=O)c1ccccc1	–	0.1	–
O=C(O)CN1c2cccnc2N(Cc2ccccc2S(=O)(=O)c2ccccc2)S1(=O)=O	1600	–	–
COc1ccc(S(=O)(=O)c2ccc(F)cc2)c(Cc2c(C)c(CC(=O)O)c3ccncn23)c1	5	–	–
Cc1c(Cc2ccccc2S(=O)(=O)c2ccc(F)cc2)c2c(n1CC(=O)O)CCCC2=O	2	21	–
COc1ccc(S(=O)(=O)c2ccc(F)cc2)c(Cn2c(C)c(CC(=O)O)c3ccc(C)nc32)c1	4	13	–
O=C(O)Cc1ccc(=O)n(Cc2ccccc2S(=O)(=O)c2ccccc2)c1	10000	–	–
O=C(O)Cc1nc(Cc2ccccc2S(=O)(=O)c2ccccc2)n2ccccc12	3000	–	–
Cc1c(-c2ccccc2)n(CC(=O)O)c(=O)n1Cc1ccccc1S(=O)(=O)c1ccc(F)cc1	10000	–	–
O=C(O)Cc1cc(Cc2ccccc2S(=O)(=O)c2ccccc2)c2nc(C(F)(F)F)ccn12	47	0.05	–
Cc1ccc2c(CC(=O)O)c(C)n(Cc3ccccc3S(=O)(=O)c3ccccc3)c2n1	14	1.3	–
O=C(O)Cc1nn(Cc2ccccc2S(=O)(=O)c2ccccc2)c(=O)c2ccccc12	65	0.04	–
Cc1c(Cc2ccccc2S(=O)(=O)c2ccccc2)c(-c2ccccc2)nn1CC(=O)O	85	–	–
O=C(O)Cc1cc(Cl)c(=O)n(Cc2ccccc2S(=O)(=O)c2ccccc2)c1	860	–	–
COc1ccc(S(=O)(=O)c2ccc(F)cc2)c(Cn2cc(CC(=O)O)c3ccc(C)nc32)c1	18	–	–
Cc1c(CC(=O)O)c2ccncn2c1Cc1ccccc1S(=O)(=O)c1ccccc1	28	–	–
Cc1c(Cc2ccccc2S(=O)(=O)c2ccc(F)cc2)nc(-c2ccccc2)n1CC(=O)O	8	0.6	–
O=C(O)Cn1c(-c2ccccc2)nn(Cc2ccccc2S(=O)(=O)c2ccccc2)c1=O	2400	–	–
